Assay results from patent US20040127567A1, “Novel methods for treating disorders in which docosahexaenoic acid (DHA) levels are affected” (Beth Israel Deaconess Medical Center, Inc., priority 1998, published 2004).
Entries after “also recorded” stand apart in the source; their conditions may differ. One block for each molecule: values may come before it.

Assays:
Assay type in all cases: in vivo, mouse
wild-type pregnant mice = test: DHA administration to wild-type pregnant mice: fetal lung surfactant (DPPC), fetal lung and brain DHA
From the text: The invention also provides a method for improving the amount of fetal lung surfactant in a mouse model. It appears that this is accomplished by upregulating fetal lung surfactant biosynthesis during pregnancy. This method again utilizes giving high doses of DHA which increases DHA and fetal surfactant levels in the fetal lung. Gestation in mice lasts about 19.5 days and previous reports have shown that surfactant levels in amniotic fluid are not detected until after day 16.5, equivalent to about 30 to 32 weeks gestational age in humans. Wild-type C57 mice were bred and identification of the cervical plug was used to determine the occurrence of pregnancy and gestational age. Beginning on day 9.5 of pregnancy (equivalent to about 24 weeks of gestational age in humans), mice were placed on Peptamen™ ±DHA for one week at different doses and sacrificed on day 16.5. Following sacrifice, amniotic fluid was aspirated from the amniotic sacs, and DPPC concentration determined by micro-HPTLC. In a different set of experiments, fetal lung and brain were removed, homogenized, lipids extracted with chloroform-methanol, and fatty acids transmethylated and analyzed by gas chromatography.

wild-type mice [1] = test: DHA and AA levels in plasma, red blood cells and pancreas following DHA therapy; conditions: 40 mg DHA/day
Protocol: In this Example, levels of DHA and AA in various blood components following administration of 40 mg DHA/day to mice was determined. In particular, 40 mg DHA was given to wild type mice and levels of DHA (Table 11) and AA (Table 12) were measured in plasma, red blood cells (RBC), and the pancreas. […] Accordingly, either plasma or red blood cell levels of DHA and AA (and their ratios) can be used as a diagnostic or to determine the effectiveness of treatment in the pancreas and other affected organs.

[2] = Tolerability observations in mice given DHA
CFTR−/− mice = test: Ileal villus height in CFTR−/− mice; conditions: 40 mg/day
Protocol: CF and WT mice were fed as outlined in the method section above. Ileal height, i.e., the villi height in the ileum, was measured in CF knockout animals treated with either Peptamen™ alone, Peptamen™ +40 mg per day DHA, or Wild Type (WT) animals treated with Peptamen™ alone. Animals were sacrificed at 50 days of age, ileum fixed in paraformaldehyde, and the height measured on micrographs at 100×. […] The results are outlined in FIG. 2. […] Statistically significant differences (p<0.005) were found between wild-type and CF mice as well as between CF+40 mg DHA/day and CF. There was no statistically significant difference between WT and CF+40 mg DHA/day. […]
Morphometry: For measurement of ileal villus height or pancreatic luminal diameter, multiple images were randomly taken at 200× using a Nikon Microphot-SA microscope equipped with a Diagnostic Instruments, Inc., Spot Digitizing System. […] Quantitation was performed using NIH Imaging Software. The differences between the means in the groups tested were evaluated using the Student's t-test.
Thus, the morphologic and morphometric studies utilized with the pancreas were also performed on the ileum. Tissue from the wild type and CFTR−/− mice was prepared for light microscopy and sections analyzed at 200×. […] Morphometric analysis is shown in FIG. 8, the villous height was quantitated using NIH image software and expressed as mean […]±S.D. (n=6). […]

wild-type mice [3] = test: Pancreas and ileum morphology in wild-type mice; conditions: 40 mg/day for one week
Protocol: The morphology of various organs were also studied. Sample preparation were carried out as follows: 1-2 cm of ileum adjacent to the cecum was fixed in formalin, embedded in paraffin, cut in cross-section, and stained with hematoxylin/eosin. For pancreatic analyses, 2-3 mm pieces of pancreas were fixed for 1.5 h in 2% glutaraldehyde in 0.2M cacodylate buffer. Tissue samples were then washed in 0.2M cacodylate buffer and subsequently postfixed for 1 h in 1% osmium tetroxide in 0.1 M cacodylate buffer. Tissue was embedded in epon and thick sections stained with 1% toluidine blue.
Morphometry: For measurement of ileal villus height or pancreatic luminal diameter, multiple images were randomly taken at 200× using a Nikon Microphot-SA microscope equipped with a Diagnostic Instruments, Inc., Spot Digitizing System. Images were examined in a blinded fashion by two independent observers. Quantitation was performed using NIH Imaging Software. The differences between the means in the groups tested were evaluated using the Student's t-test.

[4] = day 16.5, 20 mg/day DHA to the pregnant mouse from day 9.5

DHA concentration in fetal brain (wild-type pregnant mice; day 16.5, 10 mg/day DHA to the pregnant mouse from day 9.5): 15.6 ± 1.1 nmoles/mg protein
DHA concentration in fetal brain (wild-type pregnant mice; [4]): 28.9 ± 1.9 nmoles/mg protein
DHA concentration in fetal lung (wild-type pregnant mice; [4]): 29.8 ± 5.5 nmoles/mg protein
Placental transfer (wild-type pregnant mice; pregnant mice): readily crosses the placenta
Structure (SMILES): CC/C=C\C/C=C\C/C=C\C/C=C\C/C=C\C/C=C\CCC(=O)O [DHA, docosahexaenoic acid]
DHA in fetal brain (in words) (wild-type pregnant mice; 10 or 20 mg DHA/day to preterm wild-type pregnant mice): significant increase in DHA in fetal brain
DPPC concentration in amniotic fluid (wild-type pregnant mice; day 16.5, 5 mg/day DHA from day 9.5): 9.3 ± 2.6 µg/mL
DPPC concentration in amniotic fluid (wild-type pregnant mice; day 16.5, 20 mg/day DHA from day 9.5): 18.0 ± 3.6 µg/mL
Phospholipid-bound AA level in RBC (wild-type mice [1]; day 2): 10.1 nmoles/100 million cells
Phospholipid-bound AA level in pancreas (wild-type mice [1]; day 2): 262 nmoles per total extract
Phospholipid-bound AA level in plasma (wild-type mice [1]; day 2): 227 µg/mL
Phospholipid-bound DHA level in pancreas (wild-type mice [1]; day 2): 67.8 nmoles per total extract
Phospholipid-bound AA level in RBC (wild-type mice [1]; day 4): 6.2 nmoles/100 million cells
Phospholipid-bound AA level in pancreas (wild-type mice [1]; day 4): 139 nmoles per total extract
Phospholipid-bound AA level in plasma (wild-type mice [1]; day 4): 123 µg/mL
Phospholipid-bound DHA level in pancreas (wild-type mice [1]; day 4): 101.0 nmoles per total extract
Phospholipid-bound AA level in RBC (wild-type mice [1]; day 7): 3.7 nmoles/100 million cells
Phospholipid-bound AA level in pancreas (wild-type mice [1]; day 7): 104 nmoles per total extract
Phospholipid-bound AA level in plasma (wild-type mice [1]; day 7): 84 µg/mL
Phospholipid-bound DHA level in pancreas (wild-type mice [1]; day 7): 125 nmoles per total extract
Diarrhea ([2]; CFTR−/− or wild-type mice, 40 mg per day of DHA): No overt diarrhea
Side effects ([2]; treated pregnant mice and their newborns, monitored for up to one month): no obvious long-term side effects; also recorded: no observed side effects

Structure (SMILES): CC/C=C\C/C=C\C/C=C\CCCCCCCC(=O)O [LNA, α-linolenic acid, reference compound]
Effect on ileal/intestinal villus height (in words) (CFTR−/− mice): increased intestinal villi height
Effect on pancreas morphology (in words) (wild-type mice [3]): did not produce and observable effects on pancreas morphology
Effect on pancreas morphology (in words) (wild-type mice [3]; listed as 18:3n-3): did not produce any observable effects on pancreas morphology
